In ChEMBL document CHEMBL3758093, “Sulfonamide inhibition studies of the β-carbonic anhydrase from the pathogenic bacterium Vibrio cholerae” (Bioorg Med Chem, 2016):

Target: Carbonic anhydrase 1 (Homo sapiens, UniProt P00915)
Sequence (P00915 whole entry): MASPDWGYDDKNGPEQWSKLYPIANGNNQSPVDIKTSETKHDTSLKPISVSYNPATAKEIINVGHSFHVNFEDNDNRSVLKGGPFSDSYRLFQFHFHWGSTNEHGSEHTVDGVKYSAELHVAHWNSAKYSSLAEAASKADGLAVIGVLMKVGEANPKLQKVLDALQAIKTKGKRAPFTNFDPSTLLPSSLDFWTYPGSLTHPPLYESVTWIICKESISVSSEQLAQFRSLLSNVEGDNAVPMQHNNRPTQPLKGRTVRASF

Structure (SMILES): NS(=O)(=O)c1cccc(S(N)(=O)=O)c1
- Ki: 28 µM
